Assay results from patent US10966426B2, “Herbicidal compositions comprising phenylpyrimidines” (BASF SE, priority 2016, dated 2021).
Values joined by “and” are separate entries in the source; they are usually repeats but may differ in a detail not shown here. Identical values can stand only once.

Tests used:
Assay type in all cases: in vivo
[1] = test system: Alopecurus myosuroides; assay: greenhouse pre-emergence treatment, ALOMY
Summary of the method: (§1)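 Pre-emergence spray of compounds, alone or as combinations formulated as 10% emulsion concentrate in water, directly after sowing in loamy sand (~3.0% humus); pots hooded until rooting, kept at 10-25° C or 20-35° C per species for 2 to 4 weeks. Damage scored 0-100 (100 = no emergence/complete destruction); Colby expected value E=X+Y−(X·Y/100).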

[2] = test system: Helianthus annuus; assay: greenhouse pre-emergence treatment, HELAN; conditions: HELAN
Summary of the method: as §1

[3] = test system: Polygonum convolvulus; assay: greenhouse pre-emergence treatment, POLCO; conditions: POLCO; for % activity, solo application: Table X1
Summary of the method: as §1

[4] = test system: Galium aparine; assay: greenhouse pre-emergence treatment, GALAP; conditions: GALAP
Summary of the method: as §1

[5] = test system: Echinocloa crus-galli; assay: greenhouse pre-emergence treatment, ECHCG; conditions: 20 DAT
Summary of the method: as §1

[6] = test system: Apera spica-venti; assay: greenhouse pre-emergence treatment, APESV; conditions: solo, 20 DAT
Summary of the method: as §1

[7] = test system: Apera spica-venti; assay: greenhouse post-emergence treatment, APESV; conditions: APESV, 20 DAT
Summary of the method: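 Plants were grown in loamy sand with about 3.0% humus to 3–15 cm height, then sprayed with actives formulated as 10% by weight emulsion concentrates in water. Held at 10-25° C. or 20-35° C. by species for 2 to 4 weeks; damage scored 0 (none) to 100 (complete destruction).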

[8] = test system: Lolium perenne; assay: greenhouse post-emergence treatment, LOLPE; conditions: 20 DAT, 2nd series of rows
Method: The culture containers used were plastic pots containing loamy sand with approximately 3.0% of humus as substrate. The seeds of the test plants were sown separately for each species.
To this end, the test plants were either sown directly, and grown in the same containers, or they were first grown separately as seedlings and transplanted into the test containers a few days prior to treatment.
Depending on the species, the plants were kept at 10-25° C. and 20-35° C., respectively.
The test period extended over 2 to 4 weeks. During this time, the plants were tended and their response to the individual treatments was evaluated.
Evaluation was carried out using a scale from 0 to 100. 100 means no emergence of the plants, or complete destruction of at least the above-ground parts, and 0 means no damage or normal course of growth. A good herbicidal activity is given at values of at least 70, and very good herbicidal activity is given at values of at least 85.
In the examples, the solvent used was water.
In the examples below, using the method of S. R. Colby (1967) “Calculating synergistic and antagonistic responses of herbicide combinations”, Weeds 15, p. […] E=X+Y−(X·Y/100) where X=effect in percent using herbicide A at an application rate a; • Y=effect in percent using herbicide B at application rate b; • E=expected effect (in %) of herbicide A+herbicide B at application rates a+b.

[9] = test system: BRAPL; assay: greenhouse pre-emergence treatment, BRAPL; conditions: Table X9, 21 DAT, solo Ex. 5 125 gai/ha
[10] = Table X13, 20 DAT, solo Ex. 5 31.25 gai/ha
[11] = solo Ex. 5 31.25 gai/ha, 20 DAT
[12] = 20 DAT, solo Ex. 5 31.25 gai/ha
[13] = Ex. 5 solo, 62.5 gai/ha, 20 DAT
[14] = Table X10, 20 DAT, solo Ex. 5 125 gai/ha
[15] = Table X13, 20 DAT, solo Ex. 5 62.5 gai/ha

O=C(O)c1nc(C2CC2)ncc1-c1ccccc1Cl [Ex. 5]
% activity [1, 10]: 90% | % activity [1, 11]: 90% | % activity ([1]; solo Ex. 5 62.5 gai/ha, 20 DAT): 90% | % activity, solo application ([2]; 31.25 gai/ha, 20 DAT, Table X6): 0% | % activity, solo application ([2]; 62.5 gai/ha, 20 DAT, Table X1): 35% | % activity, solo application ([2]; 125 gai/ha, 20 DAT, Table X2): 40% | % activity, solo application ([2]; 125 gai/ha, 20 DAT, Table X6): 40% | % activity ([2]; Ex. 5 solo, 125 gai/ha, 20 DAT): 60% | % activity [2, 12]: 0% | % activity ([2]; 20 DAT, solo Ex. 5 62.5 gai/ha): 0% | % activity ([2]; solo, 31.25 gai/ha, 20 DAT): 0% | % activity ([2]; solo, 62.5 gai/ha, 20 DAT): 0% | % activity ([2]; solo, 125 gai/ha, 20 DAT): 0% | % activity ([2]; solo, 125 gai/ha, 21 DAT): 50% | % activity ([2]; solo, 250 gai/ha, 21 DAT): 80% | % activity, solo application ([3]; 62.5 gai/ha, 20 DAT): 60% | % activity, solo application ([3]; 125 gai/ha, 20 DAT): 80% | % activity [3, 13]: 65% | % activity ([3]; Table X10, 20 DAT, solo Ex. 5 31.25 gai/ha): 60% | % activity [3, 14]: 80% | % activity [3, 10]: 60% | % activity [3, 15]: 75% | % activity ([3]; Table X13, 20 DAT, solo Ex. 5 250 gai/ha): 90% | % activity ([3]; Table X14, 20 DAT, solo Ex. 5 31.25 gai/ha): 60% | % activity ([3]; solo, 31.25 gai/ha, 20 DAT): 35% | % activity ([3]; solo, 62.5 gai/ha, 21 DAT): 70% | % activity ([3]; solo, 125 gai/ha, 21 DAT): 85% | % activity, solo application ([4]; 62.5 gai/ha, 20 DAT, Table X1): 0% | % activity, solo application ([4]; 62.5 gai/ha, 20 DAT, Table X2): 0% | % activity, solo application ([4]; 62.5 gai/ha, 20 DAT, Table X6): 0% | % activity, solo application ([4]; 125 gai/ha, 20 DAT, Table X2): 40% | % activity [4, 13]: 0% | % activity ([4]; Ex. 5 solo, 125 gai/ha, 20 DAT): 0% | % activity [4, 12]: 0% | % activity ([4]; 20 DAT, solo Ex. 5 62.5 gai/ha): 0% | % activity ([4]; 20 DAT, solo Ex. 5 125 gai/ha): 0% | % activity [4, 11]: 0% | % activity ([4]; solo Ex. 5 62.5 gai/ha, 20 DAT): 0% | % activity ([4]; solo Ex. 5 125 gai/ha, 20 DAT): 0% | % activity ([4]; Table X9, 21 DAT, solo Ex. 5 125 gai/ha): 0% | % activity ([4]; Table X9, 21 DAT, solo Ex. 5 250 gai/ha): 0% | % activity ([4]; Table X10, 20 DAT, solo Ex. 5 62.5 gai/ha): 0% | % activity [4, 14]: 20% | % activity ([4]; Table X10, 20 DAT, solo Ex. 5 250 gai/ha): 35% | % activity ([4]; Table X11, 20 DAT, solo Ex. 5 62.5 gai/ha): 0% | % activity ([4]; Table X11, 20 DAT, solo Ex. 5 125 gai/ha): 0% | % activity [4, 15]: 20% | % activity ([4]; Table X13, 20 DAT, solo Ex. 5 125 gai/ha): 35% | % activity ([4]; solo, 31.25 gai/ha, 20 DAT): 0% | % activity ([4]; solo, 62.5 gai/ha, 20 DAT): 0% | % activity ([4]; solo, 125 gai/ha, 20 DAT): 0% | % activity ([4]; solo, 250 gai/ha, 21 DAT): 25% | % activity ([5]; Ex. 5 solo, 62.5 gai/ha): 85% | % activity ([5]; solo, 31.25 gai/ha): 95% | % activity ([5]; solo, 125 gai/ha): 95% | % activity ([6]; 31.25 gai/ha): 75% | % activity ([6]; 125 gai/ha): 80% | % activity ([7]; solo Ex. 5 62.5 gai/ha): 75% | % activity ([7]; solo, 62.5 gai/ha): 70% | % activity ([7]; solo, 125 gai/ha): 80% | % activity ([7]; solo, 250 gai/ha): 85% and 90% | % activity ([8]; solo Ex. 5 15 gai/ha): 85% | % activity ([8]; solo Ex. 5 62.5 gai/ha): 80% | % activity ([8]; solo Ex. 5 250 gai/ha): 85% | % activity ([8]; solo Ex. 5 500 gai/ha): 85% | % activity [9]: 90%
